Results on one compound are retold here after patent US11083770B2, “Medical preparation and method for enhancing tissue oxygenation in case of diabetic foot” (priority 2017, dated 2021).

Data set [1] deals with white mongrel rats. The note with it: rat, in vivo.
Data set [2] concerns white mongrel male mice. As to the kind of experiment: Acute toxicity, Kerber's method, single intramuscular dose.

Structures are written as SMILES. Peptide text beside a SMILES is read from it.

Take `N[C@@H](CCC(=O)O)C(=O)N[C@@H](Cc1c[nH]c2ccccc12)C(=O)O` [L-Glu-L-Trp, L-glutamic-L-tryptophan acid] (H-Glu-Trp-OH; N-terminus and C-terminus assumed): the “Side effects from long-term administration” value in data set [1] is recorded as “absence of side effects”. Further, the Acute toxic reactions result in data set [2] (doses exceeding the therapeutic dose by several thousand times) is given as “does not cause acute toxic reactions”. Besides, in data set [2] (mice, single i.m. 1, 2, 3, 4, 5 mg/kg, within 72 hours and further 14 days), the Death of animals entry is listed as “Death of animals did not take place in any of the groups”.
